# Reference: patent US20200316023A1, “Method Of Producing Bacterially Derived Indole-3-Propionic Acid And Compositions Comprising Same” (The Procter & Gamble Company, priority 2019, published 2020)
# Experiment: pharmacokinetic studies of IPA dose versus serum IPA levels
# Format: in vivo
# Settings: dose of from about 5 to about 10 mg of IPA
# Experimental: In some aspects, the composition can comprise from about 5 to about 10 mg of IPA per dose of the composition.
compound,measurement,value
"O=C(O)CCc1c[nH]c2ccccc12 [IPA, Indole-3-propionic acid]",IPA levels in serum relative to endogenous baseline,increase IPA levels in serum beyond endogenous baseline values
